The source made the active and inactive calls. No rule for the calls is given here.
Test system: CCRIS mutagenicity, Ames/micronucleus/aberration tests
Test: CCRIS mutagenicity studies
[1] = Test System: AMES SALMONELLA TYPHIMURIUM, Strain/Indicator: TA1535, Metabolic Activation: NONE, Method: PREINCUBATION
[2] = Test System: AMES SALMONELLA TYPHIMURIUM, Strain/Indicator: TA98, Metabolic Activation: NONE, Method: STANDARD PLATE
[3] = Test System: AMES SALMONELLA TYPHIMURIUM, Strain/Indicator: TA98, Metabolic Activation: RAT, LIVER, S-9, AROCLOR 1254, Method: STANDARD PLATE
[4] = Test System: AMES SALMONELLA TYPHIMURIUM, Strain/Indicator: TA100, Metabolic Activation: NONE, Method: STANDARD PLATE
[5] = Test System: AMES SALMONELLA TYPHIMURIUM, Strain/Indicator: TA100, Metabolic Activation: RAT, LIVER, S-9, AROCLOR 1254, Method: STANDARD PLATE

In the case of `CCCCN(CCCC(=O)O)N=O`, the mutagenic call (End Point: IN VITRO MICRONUCLEUS, Test System: CHL/IU CELLS, Metabolic Activation: NONE) was “active; positive”, the mutagenic call (Test System: AMES SALMONELLA TYPHIMURIUM, Strain/Indicator: TA100, Metabolic Activation: BOVINE, URINARY BLADDER, S-9, Method: PREINCUBATION) was “inactive; negative” and the mutagenic call (Test System: AMES SALMONELLA TYPHIMURIUM, Strain/Indicator: TA100, Metabolic Activation: PIG, URINARY BLADDER, S-9, Method: PREINCUBATION) was “inactive; negative”. The mutagenic call (Test System: AMES SALMONELLA TYPHIMURIUM, Strain/Indicator: TA100, Metabolic Activation: RAT, LIVER, MICROSOMES, SODIUM PHENOBARBITONE, Method: PREINCUBATION) was “inactive; negative”, the mutagenic call (Test System: AMES SALMONELLA TYPHIMURIUM, Strain/Indicator: TA100, Metabolic Activation: RAT, LIVER, S-9, AROCLOR, Method: PREINCUBATION) was “inactive; negative” and the mutagenic call [1] was “inactive; negative”. The mutagenic call (Test System: AMES SALMONELLA TYPHIMURIUM, Strain/Indicator: TA1535, Metabolic Activation: RAT, LIVER, MICROSOMES, SODIUM PHENOBARBITONE, Method: PREINCUBATION) was “inactive; negative”, the mutagenic call (Test System: AMES SALMONELLA TYPHIMURIUM, Strain/Indicator: TA1535, Metabolic Activation: RAT, LIVER, S-9, AROCLOR, Method: PREINCUBATION) was “inactive; negative” and the mutagenic call (Test System: AMES SALMONELLA TYPHIMURIUM, Strain/Indicator: TA1535, Metabolic Activation: RAT, LIVER, S-9, KC500 OR PHENOBARBITAL, Method: LIQUID SUSPENSION) was “active; positive”.

For `O=C(c1ccc(F)cc1)[C@@H]1O[C@@H]1c1ccccc1`, the mutagenic call [2] was “inactive; negative”, the mutagenic call [3] was “inactive; negative” and the mutagenic call [4] was “active; positive”. The mutagenic call [5] was “inactive; negative”.

`O=S(O)O` was tested, and the mutagenic call (Test System: AMES SALMONELLA TYPHIMURIUM, Strain/Indicator: GW19, Metabolic Activation: NONE, Method: PREINCUBATION (30-90 MIN)) was “inactive; negative”, the mutagenic call (Test System: AMES SALMONELLA TYPHIMURIUM, Strain/Indicator: GW19, Metabolic Activation: NONE, Method: STANDARD PLATE) was “inactive; negative” and the mutagenic call (Test System: AMES SALMONELLA TYPHIMURIUM, Strain/Indicator: HISG46, Metabolic Activation: NONE, Method: PREINCUBATION) was “active; positive”. The mutagenic call (Test System: AMES SALMONELLA TYPHIMURIUM, Strain/Indicator: HISG46, Metabolic Activation: NONE, Method: PREINCUBATION (30-120 MIN)) was “active; positive”, the mutagenic call (Test System: AMES SALMONELLA TYPHIMURIUM, Strain/Indicator: HISG46, Metabolic Activation: NONE, Method: STANDARD PLATE) was “active; positive” and the mutagenic call (Test System: AMES SALMONELLA TYPHIMURIUM, Strain/Indicator: TA92, Metabolic Activation: NONE, Method: PREINCUBATION (30-90 MIN)) was “active; positive”. For the same compound, the mutagenic call (Test System: AMES SALMONELLA TYPHIMURIUM, Strain/Indicator: TA92, Metabolic Activation: NONE, Method: STANDARD PLATE) was “inactive; negative”, the mutagenic call (Test System: AMES SALMONELLA TYPHIMURIUM, Strain/Indicator: TA97, Metabolic Activation: NONE, Method: PREINCUBATION) was “inactive; negative” and the mutagenic call (Test System: AMES SALMONELLA TYPHIMURIUM, Strain/Indicator: TA97, Metabolic Activation: RAT, LIVER, S-9, AROCLOR 1254, Method: PREINCUBATION) was “inactive; negative”. The mutagenic call [2] was “inactive; negative”, the mutagenic call [3] was “inactive; negative” and the mutagenic call [4] was “inactive; negative”. The mutagenic call [5] was “inactive; negative”, the mutagenic call (Test System: AMES SALMONELLA TYPHIMURIUM, Strain/Indicator: TA102, Metabolic Activation: NONE, Method: PREINCUBATION) was “inactive; negative” and the mutagenic call (Test System: AMES SALMONELLA TYPHIMURIUM, Strain/Indicator: TA102, Metabolic Activation: RAT, LIVER, S-9, AROCLOR 1254, Method: PREINCUBATION) was “inactive; negative”. For the same compound, the mutagenic call (Test System: AMES SALMONELLA TYPHIMURIUM, Strain/Indicator: TA1535, Metabolic Activation: NONE, Method: STANDARD PLATE) was “inactive; negative”, the mutagenic call (Test System: AMES SALMONELLA TYPHIMURIUM, Strain/Indicator: TA1535, Metabolic Activation: RAT, LIVER, S-9, AROCLOR 1254, Method: STANDARD PLATE) was “inactive; negative” and the mutagenic call (Test System: AMES SALMONELLA TYPHIMURIUM, Strain/Indicator: TA1537, Metabolic Activation: NONE, Method: STANDARD PLATE) was “inactive; negative”. The mutagenic call (Test System: AMES SALMONELLA TYPHIMURIUM, Strain/Indicator: TA1537, Metabolic Activation: RAT, LIVER, S-9, AROCLOR 1254, Method: STANDARD PLATE) was “inactive; negative”, the mutagenic call (Test System: AMES SALMONELLA TYPHIMURIUM, Strain/Indicator: TA1538, Metabolic Activation: NONE, Method: STANDARD PLATE) was “inactive; negative” and the mutagenic call (Test System: AMES SALMONELLA TYPHIMURIUM, Strain/Indicator: TA1538, Metabolic Activation: RAT, LIVER, S-9, AROCLOR 1254, Method: STANDARD PLATE) was “inactive; negative”. The mutagenic call (Test System: AMES SALMONELLA TYPHIMURIUM, Strain/Indicator: TA1950, Metabolic Activation: NONE, Method: PREINCUBATION (30-90 MIN)) was “active; positive”, the mutagenic call (Test System: AMES SALMONELLA TYPHIMURIUM, Strain/Indicator: TA1950, Metabolic Activation: NONE, Method: STANDARD PLATE) was “active; positive” and the mutagenic call (Test System: AMES SALMONELLA TYPHIMURIUM, Strain/Indicator: TA2410, Metabolic Activation: NONE, Method: PREINCUBATION (30-90 MIN)) was “active; positive”. For the same compound, the mutagenic call (Test System: AMES SALMONELLA TYPHIMURIUM, Strain/Indicator: TA2410, Metabolic Activation: NONE, Method: STANDARD PLATE) was “inactive; negative”, the mutagenic call (Test System: AMES SALMONELLA TYPHIMURIUM, Strain/Indicator: TS24, Metabolic Activation: NONE, Method: PREINCUBATION (30-90 MIN)) was “active; positive” and the mutagenic call (Test System: AMES SALMONELLA TYPHIMURIUM, Strain/Indicator: TS24, Metabolic Activation: NONE, Method: STANDARD PLATE) was “active; positive”. For the same compound, the mutagenic call (Test System: E. COLI, Strain/Indicator: WP2, Metabolic Activation: NONE, Method: STANDARD PLATE) was “inactive; negative” and the mutagenic call (Test System: E. COLI, Strain/Indicator: WP2, Metabolic Activation: RAT, LIVER, S-9, AROCLOR 1254, Method: STANDARD PLATE) was “inactive; negative”.

In the case of `Cc1cccc(OP(=O)(Oc2cccc(C)c2)Oc2cccc(C)c2)c1`, the mutagenic call (Test System: AMES SALMONELLA TYPHIMURIUM, Strain/Indicator: TA98, Metabolic Activation: HAMSTER, LIVER, S-9, AROCLOR 1254, Method: PREINCUBATION) was “inactive; negative”, the mutagenic call (Test System: AMES SALMONELLA TYPHIMURIUM, Strain/Indicator: TA98, Metabolic Activation: NONE, Method: PREINCUBATION) was “inactive; negative” and the mutagenic call (Test System: AMES SALMONELLA TYPHIMURIUM, Strain/Indicator: TA98, Metabolic Activation: RAT, LIVER, S-9, AROCLOR 1254, Method: PREINCUBATION) was “inactive; negative”. For the same compound, the mutagenic call (Test System: AMES SALMONELLA TYPHIMURIUM, Strain/Indicator: TA100, Metabolic Activation: HAMSTER, LIVER, S-9, AROCLOR 1254, Method: PREINCUBATION) was “inactive; negative”, the mutagenic call (Test System: AMES SALMONELLA TYPHIMURIUM, Strain/Indicator: TA100, Metabolic Activation: NONE, Method: PREINCUBATION) was “inactive; negative” and the mutagenic call (Test System: AMES SALMONELLA TYPHIMURIUM, Strain/Indicator: TA100, Metabolic Activation: RAT, LIVER, S-9, AROCLOR 1254, Method: PREINCUBATION) was “inactive; negative”. The mutagenic call (Test System: AMES SALMONELLA TYPHIMURIUM, Strain/Indicator: TA1535, Metabolic Activation: HAMSTER, LIVER, S-9, AROCLOR 1254, Method: PREINCUBATION) was “inactive; negative”, the mutagenic call [1] was “inactive; negative” and the mutagenic call (Test System: AMES SALMONELLA TYPHIMURIUM, Strain/Indicator: TA1535, Metabolic Activation: RAT, LIVER, S-9, AROCLOR 1254, Method: PREINCUBATION) was “inactive; negative”. The mutagenic call (Test System: AMES SALMONELLA TYPHIMURIUM, Strain/Indicator: TA1537, Metabolic Activation: HAMSTER, LIVER, S-9, AROCLOR 1254, Method: PREINCUBATION) was “inactive; negative”, the mutagenic call (Test System: AMES SALMONELLA TYPHIMURIUM, Strain/Indicator: TA1537, Metabolic Activation: NONE, Method: PREINCUBATION) was “inactive; negative” and the mutagenic call (Test System: AMES SALMONELLA TYPHIMURIUM, Strain/Indicator: TA1537, Metabolic Activation: RAT, LIVER, S-9, AROCLOR 1254, Method: PREINCUBATION) was “inactive; negative”.

Source: PubChem BioAssay AID1259407 (Chemical Carcinogenesis Research Information System (CCRIS), 2018)
